In one experiment the test system is Aspergillus oryzae. Description: Antifungal activity against Aspergillus oryzae ATCC 10124 after 48 hrs by agar diffusion bioautography method. In kind it is functional, organism-based. A general note: In agar diffusion tests the substance spreads into inoculated agar from a disc or well.
Experiment [1] has as its system Aspergillus niger. In words: Antifungal activity against Aspergillus niger ATCC 16404 after 48 hrs by agar diffusion bioautography method. It is filed as functional, organism-based.
Experiment [2] in a line: Antifungal activity against Rhizopus stolonifer (+) ATCC 6227b after 48 hrs by agar diffusion bioautography method. It is filed as functional.
Experiment [3] deals with Cryptococcus neoformans. In words: Antifungal activity against Cryptococcus neoformans ATCC 14116 after 72 hrs by agar diffusion bioautography method. It is filed as functional, organism-based.
Experiment [4] concerns Candida albicans. In words: Antifungal activity against Candida albicans ATCC 90028 after 48 hrs by agar diffusion bioautography method. In kind it is functional, organism-based.
A further experiment concerns Fusarium solani. Description: Antifungal activity against Fusarium solani ATCC 36031 after 48 hrs by agar diffusion bioautography method. In kind it is functional, organism-based.
The test system of experiment [5] is Candida parapsilosis. Description: Antifungal activity against Candida parapsilosis ATCC 22019 after 48 hrs by agar diffusion bioautography method. It is filed as functional, organism-based.
For experiment [6], the system named is Aspergillus niger. Description: Antifungal activity against Aspergillus niger ATCC 16404 after 48 hrs by broth microdilution technique. In kind it is functional. As to conditions: ATCC 16404, 48 h.
For experiment [7], the system named is Cryptococcus neoformans. In words: Antifungal activity against Cryptococcus neoformans ATCC 14116 after 72 hrs by broth microdilution technique. In kind it is functional. Particulars: ATCC 14116, 72 h.
The test system of experiment [8] is Candida albicans. In words: Antifungal activity against Candida albicans ATCC 90028 after 48 hrs by broth microdilution technique. It is filed as functional. Particulars: ATCC 90028, 48 h. For orientation: Dilution methods test growth across graded concentrations, often in twofold steps.
Experiment [9] deals with Candida parapsilosis. Description: Antifungal activity against Candida parapsilosis ATCC 22019 after 48 hrs by broth microdilution technique. In kind it is functional. Particulars: Lodderomyces parapsilosis, ATCC 22019, 48 h.
Experiment [10] is described as follows: Antifungal activity against Rhizopus stolonifer (+) ATCC 6227b after 48 hrs by broth microdilution technique. It is filed as functional.

Values after ≈ are worked out from the molar mass of the structure shown. Active and inactive are the calls of the source. No cut-off for these calls is given here.

Activity and MIC data for 25 compounds are collected here from ChEMBL document CHEMBL1777672, “Synthesis and antifungal activities of natural and synthetic biflavonoids” (2011).

As to `O=C(/C=C/c1ccc(OCc2ccccc2)c(-c2cc(/C=C/C(=O)c3ccc(OCc4ccccc4)cc3O)ccc2OCc2ccccc2)c1)c1ccc(OCc2ccccc2)cc1O`, the result (in the experiment with Aspergillus oryzae; in the experiment on Aspergillus niger [1]; in [2]; with Candida albicans [4]; with Fusarium solani; with Candida parapsilosis [5]) was inactive. The result in the experiment on Cryptococcus neoformans [3] was Active.
By MIC is commonly meant the least concentration at which growth counts as inhibited. Lower therefore signals inhibition by little substance. As to `O=C(/C=C/c1ccccc1-c1ccccc1/C=C/C(=O)c1ccc(OCc2ccccc2)cc1O)c1ccc(OCc2ccccc2)cc1O`, the result (with Aspergillus oryzae; in experiment [2]; with Candida albicans [4]; in the experiment with Fusarium solani; in the experiment on Candida parapsilosis [5]) was inactive. Further, the result in the experiment with Aspergillus niger [1] and in the experiment on Cryptococcus neoformans [3] was Active. For the same compound, the MIC against Aspergillus niger [6] and with Cryptococcus neoformans [7] was over 800 µM each time.
As for `O=c1cc(-c2ccc(O)c(-c3cc(-c4cc(=O)c5c(O)cc(O)cc5o4)ccc3O)c2)oc2cc(O)cc(O)c12`, the outcome (in the experiment on Aspergillus oryzae; in experiment [2]; with Cryptococcus neoformans [3]; in the experiment on Candida albicans [4]; in the experiment on Fusarium solani; in the experiment on Candida parapsilosis [5]) was inactive. In addition, the outcome in the experiment with Aspergillus niger [1] was Active. Further, the MIC against Aspergillus niger [6] came out at 100 µM (≈ 53.8 µg/mL).
For `COc1ccc(-c2cc(=O)c3cc(-c4ccc5oc(-c6ccc(OC)cc6)cc(=O)c5c4)ccc3o2)cc1`, the result (in the experiment with Aspergillus oryzae; with Aspergillus niger [1]; in [2]; in the experiment on Cryptococcus neoformans [3]; with Candida albicans [4]; in the experiment with Fusarium solani) was inactive. Besides, the outcome in the experiment on Candida parapsilosis [5] was inactive.
`O=C1CC(c2ccc(OCc3ccccc3)c(-c3cc(C4CC(=O)c5c(O)cc(OCc6ccccc6)cc5O4)ccc3OCc3ccccc3)c2)Oc2cc(OCc3ccccc3)cc(O)c21` (configuration not stated): the result (in the experiment on Aspergillus oryzae; in the experiment on Aspergillus niger [1]; in experiment [2]; in the experiment on Cryptococcus neoformans [3]; in the experiment on Fusarium solani; in the experiment with Candida parapsilosis [5]) was inactive. Also, in the experiment with Candida albicans [4], the outcome was Active. For the same compound, the MIC against Candida albicans [8] was over 800 µM.
The compound `O=c1cc(-c2ccc(O)cc2)oc2ccccc12` came in with a minimum inhibitory concentration (MIC) in the experiment with Candida parapsilosis [9] of 200 µM (≈ 47.6 µg/mL).
On to `O=C(/C=C/c1ccc(OCc2ccccc2)c(-c2cc(/C=C/C(=O)c3c(O)cc(OCc4ccccc4)cc3OCc3ccccc3)ccc2OCc2ccccc2)c1)c1c(O)cc(OCc2ccccc2)cc1OCc1ccccc1`, for which the outcome (in the experiment with Aspergillus oryzae; in the experiment on Aspergillus niger [1]; in experiment [2]; in the experiment with Cryptococcus neoformans [3]; in the experiment on Candida albicans [4]; in the experiment on Fusarium solani) was inactive. In addition, the result in the experiment with Candida parapsilosis [5] was inactive.
As for `O=c1c(O)c(-c2ccc(O)c(-c3cc(-c4oc5cc(O)cc(O)c5c(=O)c4O)ccc3O)c2)oc2cc(O)cc(O)c12`, the result (in the experiment on Aspergillus oryzae; with Aspergillus niger [1]; in [2]; in the experiment on Cryptococcus neoformans [3]; with Candida albicans [4]; in the experiment on Fusarium solani) was inactive. Moreover, the result in the experiment on Candida parapsilosis [5] was inactive.
`O=C1CC(c2ccccc2-c2ccccc2C2CC(=O)c3ccc(OCc4ccccc4)cc3O2)Oc2cc(OCc3ccccc3)ccc21` (configuration not stated): the result (in the experiment on Aspergillus oryzae; with Aspergillus niger [1]; in experiment [2]; with Cryptococcus neoformans [3]; in the experiment on Candida albicans [4]; in the experiment on Fusarium solani) was inactive. Also, in the experiment with Candida parapsilosis [5], the outcome was inactive.
On to `O=C(/C=C/c1ccc(O)c(-c2cc(/C=C/C(=O)c3c(O)cc(O)cc3O)ccc2O)c1)c1c(O)cc(O)cc1O`, for which the outcome in the experiment on Aspergillus oryzae, in the experiment with Aspergillus niger [1], in the experiment with Fusarium solani and in the experiment on Candida parapsilosis [5] was inactive. Besides, the MIC worked out at 200 µM (≈ 108 µg/mL) in [10], 13 µM (≈ 7.05 µg/mL) against Cryptococcus neoformans [7] and 800 µM (≈ 434 µg/mL) against Candida albicans [8]. The result (in experiment [2]; with Cryptococcus neoformans [3]; in the experiment with Candida albicans [4]) was Active.
Take `O=C1C[C@@H](c2ccc(O)c(-c3cc([C@@H]4CC(=O)c5c(O)cc(O)cc5O4)ccc3O)c2)Oc2cc(O)cc(O)c21`: the outcome (in the experiment with Aspergillus oryzae; with Aspergillus niger [1]; in experiment [2]; in the experiment with Cryptococcus neoformans [3]; in the experiment on Candida albicans [4]; in the experiment on Fusarium solani) was inactive. Besides, in the experiment with Candida parapsilosis [5], the result was inactive.
As to `O=C(/C=C/c1ccccc1)c1ccc(OCc2ccccc2)cc1O`, the MIC against Aspergillus niger [6] was 100 µM (≈ 33 µg/mL); in the experiment with Cryptococcus neoformans [7] it was over 800 µM.
Regarding `O=C1CC(c2ccc(O)c(-c3cc(C4CC(=O)c5ccc(O)cc5O4)ccc3O)c2)Oc2cc(O)ccc21` (configuration not stated), the outcome (in the experiment with Aspergillus oryzae; in [2]; with Cryptococcus neoformans [3]; in the experiment with Candida albicans [4]; in the experiment on Fusarium solani; with Candida parapsilosis [5]) was inactive. In addition, in the experiment with Aspergillus niger [1], the result was Active. In the experiment on Aspergillus niger [6], this compound had an MIC of 200 µM (≈ 102 µg/mL).
On to `O=C1CC(c2ccccc2-c2ccccc2C2CC(=O)c3ccc(O)cc3O2)Oc2cc(O)ccc21` (configuration not stated), for which the result (in the experiment with Aspergillus oryzae; in the experiment with Aspergillus niger [1]; in experiment [2]; in the experiment on Cryptococcus neoformans [3]; in the experiment with Candida albicans [4]; with Fusarium solani) was inactive. Further, the outcome with Candida parapsilosis [5] was inactive.
With `O=C(/C=C/c1ccc(O)cc1)c1c(O)cc(O)cc1O` [4,2',4',6'-TETRAHYDROXYCHALCONE], the MIC in experiment [10] was 800 µM (≈ 218 µg/mL); against Cryptococcus neoformans [7], 400 µM (≈ 109 µg/mL); in the experiment with Candida albicans [8] it was over 800 µM.
On to `C[C@@H]1[C@H](O)[C@@H](C)/C=C/C=C/C=C/C=C/C=C/C=C/C=C/[C@H](O[C@@H]2O[C@H](C)[C@@H](O)[C@H](N)[C@@H]2O)C[C@@H]2O[C@](O)(C[C@@H](O)C[C@@H](O)[C@H](O)CC[C@@H](O)C[C@@H](O)CC(=O)O[C@H]1C)C[C@H](O)[C@H]2C(=O)O`, for which the outcome (with Aspergillus oryzae; in the experiment on Aspergillus niger [1]; in experiment [2]; with Cryptococcus neoformans [3]; with Candida albicans [4]; in the experiment with Fusarium solani) was Active. Further, in the experiment on Candida parapsilosis [5], the result was Active.
`COc1cc(OC)c2c(=O)cc(-c3ccc(OC)c(-c4cc(-c5cc(=O)c6c(OC)cc(OC)cc6o5)ccc4OC)c3)oc2c1`: the outcome (in the experiment on Aspergillus oryzae; in experiment [2]; in the experiment with Cryptococcus neoformans [3]; in the experiment on Candida albicans [4]; with Fusarium solani; in the experiment on Candida parapsilosis [5]) was inactive. Moreover, the result in the experiment with Aspergillus niger [1] was Active. Besides, inhibition of growth against Aspergillus niger [6] (MIC) required 400 µM (≈ 249 µg/mL).
For `COc1cc(O)c(C(=O)/C=C/c2ccc(OC)c(-c3cc(/C=C/C(=O)c4c(O)cc(OC)cc4OC)ccc3OC)c2)c(OC)c1`, the result (with Aspergillus oryzae; in experiment [2]; in the experiment on Cryptococcus neoformans [3]; with Candida albicans [4]; with Fusarium solani; in the experiment on Candida parapsilosis [5]) was inactive. In the experiment with Aspergillus niger [1], the result was Active. Besides, 13 µM (≈ 8.15 µg/mL) was the least that counted as inhibitory with Aspergillus niger [6] (MIC).
As for `O=c1cc(-c2ccccc2-c2ccccc2-c2cc(=O)c3ccccc3o2)oc2ccccc12`, the outcome in the experiment on Aspergillus oryzae, in the experiment with Cryptococcus neoformans [3], in the experiment with Candida albicans [4], in the experiment on Fusarium solani and with Candida parapsilosis [5] was inactive. Further, the MIC in experiment [10] was 800 µM (≈ 354 µg/mL); in the experiment on Aspergillus niger [6] it was over 800 µM. Moreover, the outcome (in the experiment on Aspergillus niger [1]; in [2]) was Active.
For `O=C1CC(c2ccc(O)cc2)Oc2cc(O)ccc21` (configuration not stated), the MIC in the experiment on Aspergillus niger [6] is over 800 µM.
In turn, `COc1ccc(-c2cc(=O)c3c(OC)cc(OC)cc3o2)cc1` [TRIMETHYLAPIGENIN] came in with an MIC with Aspergillus niger [6] of over 800 µM.
Turning to `O=c1cc(-c2ccc(O)cc2)oc2cc(O)cc(O)c12` [APIGENIN], 6 µM (≈ 1.62 µg/mL) was the least that counted as inhibitory in the experiment with Aspergillus niger [6] (MIC).
The compound `COc1ccc(/C=C/C(=O)c2c(O)cc(OC)cc2OC)cc1` [FLAVOKAWAIN A] had an MIC in the experiment on Aspergillus niger [6] of over 800 µM.
Regarding `O=C1CC(c2ccc(OCc3ccccc3)c(-c3cc(C4CC(=O)c5ccc(OCc6ccccc6)cc5O4)ccc3OCc3ccccc3)c2)Oc2cc(OCc3ccccc3)ccc21` (configuration not stated), the result (with Aspergillus oryzae; in the experiment on Aspergillus niger [1]; in experiment [2]; in the experiment on Cryptococcus neoformans [3]; in the experiment on Candida albicans [4]; in the experiment with Fusarium solani) was inactive. For the same compound, the result with Candida parapsilosis [5] was inactive.
For `O=C1CC(c2ccc(OCc3ccccc3)cc2)Oc2cc(OCc3ccccc3)cc(O)c21` (configuration not stated), in the experiment on Candida albicans [8], the MIC was over 800 µM.
